Data on 33 molecules can be found in US8895733B2 (Novartis AG, priority 2010, dated 2014).

For the assay, the target named is T1, Nav 1.7 (Homo sapiens, UniProt Q15858).
T1 construct: expressed in transfected cells
The assay can be described thus: Whole-cell voltage clamp electrophysiology, automated patch clamp (marker c in Table of Examples). The format is cell-based. The conditions noted are these: read-out: Nav 1.7 activity. In outline: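 Human NaV1.7 currents were recorded by whole-cell automated patch clamp, on IonWorks Quattro or another automated platform, typically in perforated-patch configuration. The stimulus protocol was designed to probe block mainly of the inactivated state, with a typical sweep stepping from about −65 mV holding to −10 mV, then −100 mV.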
(The patch-clamp technique gives a direct electrical read-out from membranes.)

[1] abbreviates: marker c = Automated patch clamp data.
Setting [2] is: marker c: Automated patch clamp data.

Each structure is given as a SMILES string. Like-named read-outs stand apart in the source and are kept apart here.

T1 sequence (Q15858 whole entry): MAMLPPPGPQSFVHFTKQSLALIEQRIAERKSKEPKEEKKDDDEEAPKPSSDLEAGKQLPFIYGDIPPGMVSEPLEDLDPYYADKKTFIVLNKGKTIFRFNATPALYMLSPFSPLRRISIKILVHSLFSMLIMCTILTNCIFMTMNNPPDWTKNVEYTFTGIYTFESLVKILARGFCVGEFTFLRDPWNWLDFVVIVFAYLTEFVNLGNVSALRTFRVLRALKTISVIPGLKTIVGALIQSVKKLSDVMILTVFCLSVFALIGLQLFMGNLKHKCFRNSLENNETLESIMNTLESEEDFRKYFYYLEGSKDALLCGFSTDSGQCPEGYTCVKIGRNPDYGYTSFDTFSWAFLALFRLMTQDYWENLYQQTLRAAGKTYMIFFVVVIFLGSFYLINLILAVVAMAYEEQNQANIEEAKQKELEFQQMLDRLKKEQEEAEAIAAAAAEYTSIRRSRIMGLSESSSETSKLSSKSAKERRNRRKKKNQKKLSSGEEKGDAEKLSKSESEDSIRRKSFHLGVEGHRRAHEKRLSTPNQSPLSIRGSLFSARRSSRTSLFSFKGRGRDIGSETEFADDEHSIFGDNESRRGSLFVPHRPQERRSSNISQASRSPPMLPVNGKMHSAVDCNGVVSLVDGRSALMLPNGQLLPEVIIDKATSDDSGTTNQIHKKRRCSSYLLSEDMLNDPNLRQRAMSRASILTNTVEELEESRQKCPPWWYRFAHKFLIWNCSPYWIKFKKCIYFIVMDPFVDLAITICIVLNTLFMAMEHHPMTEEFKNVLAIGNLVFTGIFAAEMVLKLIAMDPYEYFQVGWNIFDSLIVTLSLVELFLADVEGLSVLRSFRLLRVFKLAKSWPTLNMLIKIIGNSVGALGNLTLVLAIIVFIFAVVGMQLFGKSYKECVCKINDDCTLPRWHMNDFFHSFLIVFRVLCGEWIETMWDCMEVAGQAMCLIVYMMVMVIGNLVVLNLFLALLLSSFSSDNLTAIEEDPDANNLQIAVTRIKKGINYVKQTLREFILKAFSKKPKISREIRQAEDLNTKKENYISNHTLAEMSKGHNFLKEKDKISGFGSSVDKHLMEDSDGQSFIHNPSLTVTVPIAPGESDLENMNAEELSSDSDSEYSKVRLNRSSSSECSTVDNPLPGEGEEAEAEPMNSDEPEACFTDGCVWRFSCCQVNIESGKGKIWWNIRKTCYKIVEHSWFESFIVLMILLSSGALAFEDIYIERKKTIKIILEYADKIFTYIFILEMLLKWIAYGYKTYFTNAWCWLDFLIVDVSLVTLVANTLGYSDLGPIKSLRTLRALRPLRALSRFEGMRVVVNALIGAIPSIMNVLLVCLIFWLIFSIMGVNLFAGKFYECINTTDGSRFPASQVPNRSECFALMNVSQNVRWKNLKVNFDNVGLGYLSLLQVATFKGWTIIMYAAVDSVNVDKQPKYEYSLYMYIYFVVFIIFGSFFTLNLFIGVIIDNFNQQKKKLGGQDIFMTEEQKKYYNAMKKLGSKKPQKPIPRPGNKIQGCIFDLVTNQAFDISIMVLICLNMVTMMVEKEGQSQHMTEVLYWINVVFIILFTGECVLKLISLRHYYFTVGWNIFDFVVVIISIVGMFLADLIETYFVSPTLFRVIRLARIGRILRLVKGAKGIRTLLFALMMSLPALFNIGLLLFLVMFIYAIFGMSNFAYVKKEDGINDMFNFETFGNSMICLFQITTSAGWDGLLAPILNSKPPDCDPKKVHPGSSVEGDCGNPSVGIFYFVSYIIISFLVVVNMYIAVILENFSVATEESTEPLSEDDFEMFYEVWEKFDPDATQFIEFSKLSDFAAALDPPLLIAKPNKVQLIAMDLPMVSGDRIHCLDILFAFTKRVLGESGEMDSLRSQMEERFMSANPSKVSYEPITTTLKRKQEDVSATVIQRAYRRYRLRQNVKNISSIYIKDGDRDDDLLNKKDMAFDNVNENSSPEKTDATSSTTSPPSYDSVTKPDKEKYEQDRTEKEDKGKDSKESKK

As for `CN(c1ccccc1)c1nc(N)nc(-c2noc(N3CC4CCC(C3)O4)n2)n1` [Example 500, 2-N-methyl-6-(5-{8-oxa-3-azabicyclo[3.2.1]octan-3-yl}-1,2,4-oxadiazol-3-yl)-2-N-phenyl-1,3,5-triazine-2,4-diamine], under setting [1], the IC50 is above 9120 nM.
Take `Cc1cccnc1-c1nc(-c2nc(N)nc(N(C)c3ccccc3)n2)no1` [Example 152, 2-N-methyl-6-[5-(3-methylpyridin-2-yl)-1,2,4-oxadiazol-3-yl]-2-N-phenyl-1,3,5-triazine-2,4-diamine]: under setting [2], the IC50 came to 1620 nM.
The same measure, in the same setting: as for `CCOc1ccc(-c2nc(-c3nc(N)nc(N(C)c4ccccc4)n3)no2)cn1` [Example 148, 6-[5-(6-ethoxypyridin-3-yl)-1,2,4-oxadiazol-3-yl]-2-N-methyl-2-N-phenyl-1,3,5-triazine-2,4-diamine], the figure is 323 nM.
On to `Nc1nc(Nc2cccc(F)c2)nc(-c2noc(C(=O)NC3CCC3)n2)n1` [Example 224, 3-{4-amino-6-[(3-fluorophenyl)amino]-1,3,5-triazin-2-yl}-N-cyclobutyl-1,2,4-oxadiazole-5-carboxamide], for which the IC50 under setting [1] worked out at 1520 nM.
As for `Nc1nc(Nc2ccc(F)c(F)c2)nc(-c2noc(-c3ccc(OCC(F)(F)F)nc3)n2)n1` [Example 416, 2-N-(3,4-difluorophenyl)-6-{5-[6-(2,2,2-trifluoroethoxy)pyridin-3-yl]-1,2,4-oxadiazol-3-yl}-1,3,5-triazine-2,4-diamine], the IC50 under setting [1] is 1500 nM.
With `CN(c1ccccc1)c1nc(N)nc(-c2noc(-c3ccc(NCC(F)(F)F)cn3)n2)n1` [Example 471, 2-N-methyl-2-N-phenyl-6-(5-{5-[(2,2,2-trifluoroethyl)amino]pyridin-2-yl}-1,2,4-oxadiazol-3-yl)-1,3,5-triazine-2,4-diamine], under setting [1], the IC50 stood at 731 nM.
Take `Nc1nc(Nc2ccccc2)nc(-c2noc(-c3ncccc3Cl)n2)n1` [Example 431, 6-[5-(3-chloropyridin-2-yl)-1,2,4-oxadiazol-3-yl]-2-N-phenyl-1,3,5-triazine-2,4-diamine]: the IC50 under setting [1] stood at 142 nM.
For the molecule `CN(c1ccccc1)c1nc(N)nc(-c2noc(C(=O)N3CCC(SCC(F)(F)F)CC3)n2)n1` [Example 465, 2-N-methyl-2-N-phenyl-6-[5-({4-[(2,2,2-trifluoroethyl)sulfanyl]piperidin-1-yl}carbonyl)-1,2,4-oxadiazol-3-yl]-1,3,5-triazine-2,4-diamine], the IC50 under setting [1] worked out at 1040 nM.
Still for that read-out and setting: next, `CN(c1ccccc1)c1nc(N)nc(-c2noc([C@@H]3CCCN3CCC(F)(F)F)n2)n1` [Example 441, 2-N-Methyl-2-N-phenyl-6-{5-[(2S)-1-(3,3,3-trifluoropropyl)pyrrolidin-2-yl]-1,2,4-oxadiazol-3-yl}-1,3,5-triazine-2,4-diamine]: 1450 nM; `CN(c1cccc(Cl)c1)c1nc(N)nc(-c2noc(-c3ncccc3F)n2)n1` [Example 272, 2-N-(3-chlorophenyl)-6-[5-(3-fluoropyridin-2-yl)-1,2,4-oxadiazol-3-yl]-2-N-methyl-1,3,5-triazine-2,4-diamine]: 478 nM; `CCOc1cccnc1-c1nc(-c2nc(N)nc(N(C)c3ccccc3)n2)no1` [Example 480, 6-[5-(3-ethoxypyridin-2-yl)-1,2,4-oxadiazol-3-yl]-2-N-methyl-2-N-phenyl-1,3,5-triazine-2,4-diamine]: 313 nM.
For `CN(c1ccccc1)c1nc(N)nc(-c2noc(N3CCC(CS(=O)(=O)CC(F)(F)F)CC3)n2)n1` [Example 178, 2-N-Methyl-2-N-phenyl-6-[5-(4-{[(2,2,2-trifluoroethane)sulfonyl]methyl}piperidin-1-yl)-1,2,4-oxadiazol-3-yl]-1,3,5-triazine-2,4-diamine], under setting [2], the IC50 was 2650 nM.
Consider `CN(c1ccccc1)c1nc(N)nc(-c2noc(-c3ccc(OCC4CC4)nc3)n2)n1` [Example 146, 6-{5-[6-(cyclopropylmethoxy)pyridin-3-yl]-1,2,4-oxadiazol-3-yl}-2-N-methyl-2-N-phenyl-1,3,5-triazine-2,4-diamine], for which the IC50 under setting [2] worked out at 188 nM.
Turning to `Nc1nc(Nc2ccc(F)cc2)nc(-c2noc(-c3nccs3)n2)n1` [Example 241], the IC50 under setting [1] was 89 nM.
Still for that read-out and setting: next, `CC(OCc1ccc(-c2nc(-c3nc(N)nc(Nc4ccccc4)n3)no2)cn1)C(F)(F)F` (stereo not drawn) [Example 210, 2-N-phenyl-6-[5-(6-{[(1,1,1-trifluoropropan-2-yl)oxy]methyl}pyridin-3-yl)-1,2,4-oxadiazol-3-yl]-1,3,5-triazine-2,4-diamine]: 33 nM; `CN(c1ccccc1)c1nc(N)nc(-c2noc(-c3ncccc3NCC3CC3)n2)n1` [Example 487, 6-{5-[3-(Cyclopropylmethylamino)-pyridin-2-yl]-[1,2,4]oxadiazol-3-yl}-N-methyl-N-phenyl-[1,3,5]triazine-2,4-diamine]: above 6590 nM.
For the molecule `Cc1ccccc1-c1nc(-c2nc(N)nc(N(C)c3ccccc3)n2)no1` [Example 27, N-Methyl-N-phenyl-6-(5-o-tolyl-[1,2,4]oxadiazol-3-yl)-[1,3,5]triazine-2,4-diamine], the IC50 under setting [2] turned out to be 923 nM.
For `CN(c1ccccc1)c1nc(N)nc(-c2noc(-c3ccc(C(F)(F)F)cn3)n2)n1` [Example 420, 2-N-methyl-2-N-phenyl-6-{5-[5-(trifluoromethyl)pyridin-2-yl]-1,2,4-oxadiazol-3-yl}-1,3,5-triazine-2,4-diamine], the IC50 under setting [1] stood at 2300 nM.
For the molecule `CN(c1ccccc1)c1nc(N)nc(-c2noc(-c3ccc(CCC(F)(F)F)nc3)n2)n1` [Example 315, 2-N-methyl-2-N-phenyl-6-{5-[6-(3,3,3-trifluoropropyl)pyridin-3-yl]-1,2,4-oxadiazol-3-yl}-1,3,5-triazine-2,4-diamine], the IC50 under setting [1] turned out to be 170 nM.
For the molecule `CN(c1ccccc1)c1nc(N)nc(-c2noc(-c3ncccc3COCC(F)(F)F)n2)n1` [Example 302, 2-N-methyl-2-N-phenyl-6-(5-{3-[(2,2,2-trifluoroethoxy)methyl]pyridin-2-yl}-1,2,4-oxadiazol-3-yl)-1,3,5-triazine-2,4-diamine], the IC50 under setting [1] worked out at 406 nM.
As for `CN(c1nc(N)nc(-c2noc(-c3cccs3)n2)n1)c1ccccc1F` [Example 90, N-(2-Fluoro-phenyl)-N-methyl-6-(5-thiophen-2-yl-[1,2,4]oxadiazol-3-yl)-[1,3,5]triazine-2,4-diamine], under setting [2], the IC50 was found to be 415 nM.
On the same count and under the same terms, as for `CN(c1ccccc1)c1nc(N)nc(-c2noc(C3CCCCO3)n2)n1` (stereo not drawn) [Example 56, N-Methyl-N-phenyl-6-[5-(tetrahydro-pyran-2-yl)-[1,2,4]oxadiazol-3-yl]-[1,3,5]triazine-2,4-diamine], the figure is 4580 nM.
With `CC(OCC(F)(F)F)c1ccc(-c2nc(-c3nc(N)nc(Nc4ccccc4)n3)no2)cn1` (stereo not drawn) [Example 212, 2-N-phenyl-6-(5-{6-[1-(2,2,2-trifluoroethoxy)ethyl]pyridin-3-yl}-1,2,4-oxadiazol-3-yl)-1,3,5-triazine-2,4-diamine], the IC50 under setting [1] was determined as 211 nM.
With `COCCN(c1ccccc1)c1nc(N)nc(-c2noc(-c3ccc(C(=O)OC)nc3)n2)n1` [Example 311, methyl 5-(3-{4-amino-6-[(2-methoxyethyl)(phenyl)amino]-1,3,5-triazin-2-yl}-1,2,4-oxadiazol-5-yl)pyridine-2-carboxylate], under setting [1], the IC50 was found to be 451 nM.
For `CC(C)N(c1ccccc1)c1nc(N)nc(-c2noc(-c3ccco3)n2)n1` [Example 30, 6-(5-Furan-2-yl-[1,2,4]oxadiazol-3-yl)-N-isopropyl-N-phenyl-[1,3,5]triazine-2,4-diamine], the IC50 under setting [2] was determined as 933 nM.
As for `CN(c1ccccc1)c1nc(N)nc(-c2noc(-c3ncccc3C(=O)NC3CCC3)n2)n1` [Example 371, 2-(3-{4-amino-6-[methyl(phenyl)amino]-1,3,5-triazin-2-yl}-1,2,4-oxadiazol-5-yl)-N-cyclobutylpyridine-3-carboxamide], the IC50 under setting [1] stood at 7300 nM.
`CC(=O)c1ccc(-c2nc(-c3nc(N)nc(N(C)c4ccccc4)n3)no2)cn1` [Example 304, 1-[5-(3-{4-Amino-6-[methyl(phenyl)amino]-1,3,5-triazin-2-yl}-1,2,4-oxadiazol-5-yl)pyridin-2-yl]ethan-1-one]: under setting [1], the IC50 was 746 nM.
For the molecule `CN(c1ccccc1)c1nc(N)nc(-c2noc(-c3ccc(OCC(F)F)nc3)n2)n1` [Example 372, 6-{5-[6-(2,2-difluoroethoxy)pyridin-3-yl]-1,2,4-oxadiazol-3-yl}-2-N-methyl-2-N-phenyl-1,3,5-triazine-2,4-diamine], the IC50 under setting [1] came out at 155 nM.
For the molecule `CCOC(=O)c1nc(-c2nc(N)nc(N(C)c3ccccc3)n2)no1` [Example 73, 3-[4-Amino-6-(methyl-phenyl-amino)-[1,3,5]triazin-2-yl]-[1,2,4]oxadiazole-5-carboxylic acid ethyl ester], under setting [2], the IC50 was determined as 1490 nM.
For the molecule `CN(c1ccccc1)c1nc(N)nc(-c2noc(N3CC[C@H](Oc4ccccc4)C3)n2)n1` [Example 433, 2-N-methyl-6-{5-[(3S)-3-phenoxypyrrolidin-1-yl]-1,2,4-oxadiazol-3-yl}-2-N-phenyl-1,3,5-triazine-2,4-diamine], the IC50 under setting [1] is 161 nM.
Still for that read-out and setting: next, `CN(c1ccc(F)c(Cl)c1)c1nc(N)nc(-c2noc(-c3ccc(OCC(F)(F)F)nc3)n2)n1` [Example 414, 2-N-(3-Chloro-4-fluorophenyl)-2-N-methyl-6-{5-[6-(2,2,2-trifluoroethoxy)pyridin-3-yl]-1,2,4-oxadiazol-3-yl}-1,3,5-triazine-2,4-diamine]: 410 nM.
On to `CCOc1ccccc1-c1nc(-c2nc(N)nc(N(C)c3cccc(C)c3)n2)no1` [Example 183, 6-[5-(2-ethoxyphenyl)-1,2,4-oxadiazol-3-yl]-2-N-methyl-2-N-(3-methylphenyl)-1,3,5-triazine-2,4-diamine], for which the IC50 under setting [2] was 67 nM.
Consider `CCCS(=O)(=O)N1CCC(c2nc(-c3nc(N)nc(N(C)c4ccccc4)n3)no2)C1` (stereo not drawn) [Example 200, 2-N-methyl-2-N-phenyl-6-{5-[1-(propane-1-sulfonyl)pyrrolidin-3-yl]-1,2,4-oxadiazol-3-yl}-1,3,5-triazine-2,4-diamine], for which the IC50 under setting [1] was determined as 8590 nM.
